Measured values as given in ChEMBL document CHEMBL1129240, “Synthesis of acyclo-C-nucleosides in the imidazo[1,2-a]pyridine and pyrimidine series as antiviral agents” (J Med Chem, 1996).
In brackets after ≈: the same amount, converted by molar mass.

How the values were obtained:
[1] = Cytotoxic concentration required to cause microscopically detectable alteration of normal cell morphology of E6SM cells; assay type: cell-based; conditions: human, read-out: CC50
[2] = (§1) Cytotoxic concentration required to cause microscopically detectable alteration of normal cell morphology of HeLa cells; assay type: cell-based; conditions: human, read-out: CC50
[3] = (§2) Cytotoxic concentration required to cause microscopically detectable alteration of normal cell morphology of Vero cells; assay type: cell-based; conditions: chlorocebus sabaeus, read-out: CC50
Human alphaherpesvirus 3 [4] = assay: Minimum Inhibitory Concentration (MIC) for activity against Varicella-Zoster Virus(VZV) using OKA (TK+) strain; assay type: functional
Cytomegalovirus [5] = assay: Minimum Inhibitory Concentration (MIC) tested for activity against Cytomegalovirus (CMV) using AD169 strain; assay type: functional; conditions: Human betaherpesvirus 5
Human alphaherpesvirus 3 [6] = assay: Minimum Inhibition Concentration (MIC) for activity against Varicella-Zoster Virus(VZV) using YS/R (TK-) strain.; assay type: functional
[7] = Minimum cytotoxic concentration to reduce the HEL cell proliferation by 50%; assay type: cell-based; conditions: human, HEL cells; read-out: MCC
Human alphaherpesvirus 3 [8] = assay: Minimum Inhibitory Concentration (MIC) tested for activity against Varicella-Zoster Virus(VZV) using YS(TK+) strain.; assay type: functional
Human alphaherpesvirus 3 [9] = assay: Minimum Inhibition Concentration( MIC) for activity against Varicella-Zoster Virus(VZV) using 07/1 (TK-) strain.; assay type: functional
Cytomegalovirus [10] = assay: Minimum Inhibitory Concentration (MIC) tested for activity against Cytomegalovirus (CMV) using Davis strain; assay type: functional; conditions: Human betaherpesvirus 5
[11] = Cytotoxic concentration required to reduce CEM cell viability by 50%; assay type: cell-based; conditions: human, CCRF-CEM (CEM) cells
Human alphaherpesvirus 3 [12] = assay: Minimum Inhibition Concentration (MIC) for activity against Varicella-Zoster Virus(VZV) using YS/R (TK-) strain; assay type: functional
Human alphaherpesvirus 3 [13] = assay: Minimum Inhibition Concentration (MIC) for activity against Varicella-Zoster Virus(VZV) using YS(TK+) strain; assay type: functional
[14] = Minimum cytotoxic concentration required to reduce human embryonic lung (HEL) cell proliferation by 50%; assay type: cell-based; conditions: human embryonic lung (HEL) cells, read-out: MCC
Human alphaherpesvirus 3 [15] = assay: Minimum Inhibitory Concentration (MIC) tested for activity against Varicella-Zoster Virus(VZV) using YS/R (TK-) strain.; assay type: functional
Human alphaherpesvirus 3 [16] = assay: Minimum Inhibition Concentration (MIC) for activity against Varicella-Zoster Virus(VZV) using 07/1 (TK-) strain.; assay type: functional
HeLa = assay: as §1; assay type: cell-based; conditions: Homo sapiens
Vero = assay: as §2; assay type: cell-based; conditions: Chlorocebus sabaeus
Human alphaherpesvirus 3 [17] = assay: Minimum Inhibition Concentration (MIC) for activity against Varicella-Zoster Virus(VZV) using OKA (TK+) strain; assay type: functional
Human alphaherpesvirus 3 [18] = assay: Minimum Inhibitory Concentration (MIC) tested for activity against Varicella-Zoster Virus(VZV) using 07/1 (TK-) strain.; assay type: functional
Human alphaherpesvirus 3 [19] = assay: Minimum Inhibition Concentration (MIC) for activity against Varicella-Zoster Virus(VZV) using YS(TK+) strain.; assay type: functional
Cytomegalovirus [20] = assay: Minimum Inhibition Concentration (MIC) for activity against Cytomegalovirus (CMV) using Davis strain; assay type: functional; conditions: Human betaherpesvirus 5
Cytomegalovirus [21] = assay: Minimum Inhibition Concentration (MIC) for activity against Cytomegalovirus (CMV) using AD169 strain; assay type: functional; conditions: Human betaherpesvirus 5
Human alphaherpesvirus 3 [22] = assay: Minimum Inhibition Concentration( MIC) for activity against Varicella-Zoster Virus(VZV) using YS/R (TK-) strain.; assay type: functional
Human alphaherpesvirus 3 [23] = assay: Minimum Inhibition Concentration( MIC) for activity against Varicella-Zoster Virus(VZV) using YS(TK+) strain.; assay type: functional
Cytomegalovirus [24] = assay: Minimum Inhibition Concentration( MIC) for activity against Cytomegalovirus (CMV) using AD169 strain; assay type: functional; conditions: Human betaherpesvirus 5

| Compound | MCC [1] [µg/mL] | MCC [2] [µg/mL] | MCC [3] [µg/mL] | MIC (Human alphaherpesvirus 3 [4]) [µg/mL] | MIC (Cytomegalovirus [5]) [µg/mL] | CC50 [7] [µg/mL] | MIC (Human alphaherpesvirus 3 [8]) [µg/mL] | MIC (Cytomegalovirus [10]) [µg/mL] | CC50 [11] [µg/mL] | MIC (Human alphaherpesvirus 3 [15]) [µg/mL] | MIC (Human alphaherpesvirus 3 [19]) [µg/mL] | further results |
| --- | --- | --- | --- | --- | --- | --- | --- | --- | --- | --- | --- | --- |
| NC(=O)c1ncn([C@@H]2O[C@H](CO)[C@@H](O)[C@H]2O)n1 [RIBAVIRIN] | > 400 | > 200 | > 400 |  |  |  |  |  |  |  |  |  |
| CCSCc1cnc2cc(C)ccn12 | 40 | 100 | 200 | > 10 | > 10 | 35 (≈ 170 µM) | > 10 | 10 (≈ 48.5 µM) | 11 (≈ 53.3 µM) |  |  | MIC (Human alphaherpesvirus 3 [6]): > 10 µg/mL; MIC (Human alphaherpesvirus 3 [9]): > 10 µg/mL |
| OCCSCc1cnc2ccccn12 | 400 | 200 | 400 | 25 (≈ 120 µM) | 40 (≈ 192 µM) |  |  | 35 (≈ 168 µM) | 29 (≈ 139 µM) |  |  | MIC (Human alphaherpesvirus 3 [12]): 25 µg/mL (≈ 120 µM); MIC (Human alphaherpesvirus 3 [13]): 25 µg/mL (≈ 120 µM); CC50 [14]: > 100 µg/mL |
| Cc1c(Br)cn2c(CSCCO)cnc2c1Br | > 200 | > 100 | > 40 | 35 (≈ 92.1 µM) | 20 (≈ 52.6 µM) | 50 (≈ 132 µM) | > 40 | 30 (≈ 78.9 µM) | 37 (≈ 97.3 µM) | 20 (≈ 52.6 µM) |  | MIC (Human alphaherpesvirus 3 [16]): 22 µg/mL (≈ 57.9 µM) |
| CCCCOc1ccc(S(=O)(=O)[C@@](C)(Cc2ccc(OCCN3CCCCC3)cc2)C(=O)NO)cc1 |  |  |  |  |  |  |  |  |  |  |  | EC50 (HeLa): > 400 µg/mL; EC50 (Vero): > 400 µg/mL |
| Cc1cccc2ncc(CSCC(C)O)n12 (configuration not stated) | 400 | 100 | > 400 |  | > 10 | 90 (≈ 381 µM) | 20 (≈ 84.6 µM) | > 10 | 27 (≈ 114 µM) | 24 (≈ 102 µM) |  | MIC (Human alphaherpesvirus 3 [17]): 30 µg/mL (≈ 127 µM); MIC (Human alphaherpesvirus 3 [18]): 24 µg/mL (≈ 102 µM) |
| Cc1c(Br)c(C)n2c(CSCc3ccccc3)cnc2c1Br | > 40 | > 100 | > 40 |  | 1.7 (≈ 3.86 µM) | > 100 |  | 4 (≈ 9.09 µM) | 35 (≈ 79.5 µM) |  | > 40 | MIC (Human alphaherpesvirus 3 [6]): 40 µg/mL (≈ 90.9 µM); MIC (Human alphaherpesvirus 3 [17]): > 40 µg/mL; MIC (Human alphaherpesvirus 3 [16]): 40 µg/mL (≈ 90.9 µM) |
| Cc1c(Br)cn2c(CSCc3ccccc3)cnc2c1Br | 40 | 40 | 40 |  |  | 30 (≈ 70.4 µM) |  |  | 5 (≈ 11.7 µM) |  | 1.8 (≈ 4.22 µM) | MIC (Cytomegalovirus [20]): 2 µg/mL (≈ 4.69 µM); MIC (Cytomegalovirus [21]): > 1 µg/mL; MIC (Human alphaherpesvirus 3 [22]): 2 µg/mL (≈ 4.69 µM); MIC (Human alphaherpesvirus 3 [17]): 2.7 µg/mL (≈ 6.34 µM); MIC (Human alphaherpesvirus 3 [16]): 2.3 µg/mL (≈ 5.4 µM) |
| Cc1ccn2c(CSCC(O)CO)cnc2c1 (configuration not stated) | > 400 | 400 | > 400 | 100 (≈ 396 µM) | > 50 | > 100 | > 100 | > 50 | > 100 | 50 (≈ 198 µM) |  |  |
| Cc1c(Br)c(C)n2c(CSCCO)cnc2c1Br | 100 | > 200 | > 200 | > 40 | > 10 | 70 (≈ 178 µM) |  | > 10 | 17 (≈ 43.1 µM) | > 10 | > 40 | MIC (Human alphaherpesvirus 3 [18]): > 40 µg/mL |
| OCCCSCc1cnc2c(Cl)cc(C(F)(F)F)cn12 | 100 | 100 | > 100 | > 40 | > 40 | > 100 |  | > 40 | 27 (≈ 83.1 µM) | > 40 | > 40 | MIC (Human alphaherpesvirus 3 [18]): > 40 µg/mL |
| Cc1cccn2c(CSCc3ccccc3)cnc12 | 40 | 4 | 100 |  |  | 8 (≈ 29.8 µM) |  |  | 0.5 (≈ 1.86 µM) |  |  | MIC (Cytomegalovirus [20]): 0.2 µg/mL (≈ 0.745 µM); MIC (Human alphaherpesvirus 3 [6]): > 1 µg/mL; MIC (Human alphaherpesvirus 3 [17]): 0.9 µg/mL (≈ 3.35 µM); MIC (Human alphaherpesvirus 3 [23]): 0.3 µg/mL (≈ 1.12 µM); MIC (Human alphaherpesvirus 3 [16]): 0.4 µg/mL (≈ 1.49 µM); MIC (Cytomegalovirus [24]): 0.2 µg/mL (≈ 0.745 µM) |
| CCSCc1cnc2c(C)cccn12 | 200 | 10 | 400 | 10 (≈ 48.5 µM) | 2 (≈ 9.69 µM) | 35 (≈ 170 µM) | 5 (≈ 24.2 µM) | 2 (≈ 9.69 µM) | 4.1 (≈ 19.9 µM) |  |  | MIC (Human alphaherpesvirus 3 [6]): > 10 µg/mL; MIC (Human alphaherpesvirus 3 [18]): 6.8 µg/mL (≈ 33 µM) |
| COC(=O)c1nc2ccccn2c1CSCCO | > 400 | > 200 | > 400 | > 25 | > 50 |  |  | > 50 | 87 (≈ 327 µM) | > 25 | > 25 | CC50 [14]: > 100 µg/mL |
| Nc1nc2c(ncn2COC(CO)CO)c(=O)[nH]1 [GANCICLOVIR] | > 100 |  |  |  | 0.5 (≈ 1.96 µM) |  |  | 0.5 (≈ 1.96 µM) |  |  |  |  |
